Measured values taken from ChEMBL document CHEMBL6134887, “Linker and Head-Group Exploration of Anti-MRSA Triaromatic Pleuromutilins” (J Med Chem, 2025).
Values after ≈ are worked out from the molar mass of the structure shown.

Assays:
Staphylococcus aureus = assay: Antibacterial activity against methicillin resistant Staphylococcus aureus USA300 FPR3757 assessed as inhibition of bacterial growth incubated for 20 to 24 hrs by microbroth serial dilution method; type: functional; conditions: time 20-24 hrs, read-out: MIC100
[1] = Metabolic stability in mouse liver microsomes assessed as half-life at 1 uM measured up to 60 mins by LC-MS/MS analysis; type: ADME, Microsome
[2] = Metabolic stability in human liver microsomes assessed as half-life at 1 uM measured up to 30 mins by LC-MS/MS analysis; type: ADME, Microsome
[3] = Metabolic stability in mouse liver assessed as intrinsic clearance at 1 uM measured up to 60 mins by LC-MS/MS analysis; type: ADME, tissue-based; conditions: read-out: CLH
[4] = Metabolic stability in human liver assessed as intrinsic clearance at 1 uM measured up to 30 mins by LC-MS/MS analysis; type: ADME, tissue-based; conditions: read-out: CLH

| Structure (SMILES) | MIC (Staphylococcus aureus) [µg/mL] | also measured |
| --- | --- | --- |
| C=C[C@]1(C)C[C@@H](OC(=O)Cn2cc(-c3ccc(Cn4ccc(N)nc4=O)nc3)nn2)[C@]2(C)[C@H](C)CC[C@]3(CCC(=O)[C@H]32)[C@@H](C)[C@@H]1O | 8 (≈ 12.7 µM) |  |
| C=C[C@]1(C)C[C@@H](OC(=O)Cn2cc(-c3ccc(Cn4ccc5c(N)ncnc54)c(OC)c3)nn2)[C@]2(C)[C@H](C)CC[C@]3(CCC(=O)[C@H]32)[C@@H](C)[C@@H]1O | 0.12 (≈ 0.176 µM) | half-life at 1 µM [1]: 40.8 s; half-life at 1 µM [2]: 72 s; CLint scaled at 1 µM [3]: 486 L/h/kg; CLint scaled at 1 µM [4]: 310 L/h/kg |
| C=C[C@]1(C)C[C@@H](OC(=O)Cn2cc(-c3ccc(NC(=O)c4ccc(OC)cc4)cc3)nn2)[C@]2(C)[C@H](C)CC[C@]3(CCC(=O)[C@H]32)[C@@H](C)[C@@H]1O | 8 (≈ 12.2 µM) |  |
| C=C[C@]1(C)C[C@@H](OC(=O)Cn2cc(-c3ccc(Cn4cncc4CO)nc3)nn2)[C@]2(C)[C@H](C)CC[C@]3(CCC(=O)[C@H]32)[C@@H](C)[C@@H]1O | 2 (≈ 3.24 µM) |  |
| C=C[C@]1(C)C[C@@H](OC(=O)Cn2cc(-c3ccc(CNc4cc(N)ncn4)cc3)nn2)[C@]2(C)[C@H](C)CC[C@]3(CCC(=O)[C@H]32)[C@@H](C)[C@@H]1O | 0.03 (≈ 0.0478 µM) | half-life at 1 µM [1]: 33 s; half-life at 1 µM [2]: 78 s; CLint scaled at 1 µM [3]: > 600 L/h/kg; CLint scaled at 1 µM [4]: 289 L/h/kg |
| C=C[C@]1(C)C[C@@H](OC(=O)Cn2cc(-c3cccc(Oc4nc(N)nc5[nH]cnc45)c3)nn2)[C@]2(C)[C@H](C)CC[C@]3(CCC(=O)[C@H]32)[C@@H](C)[C@@H]1O | 0.12 (≈ 0.183 µM) |  |
| C=C[C@]1(C)C[C@@H](OC(=O)Cn2cc(-c3cncc(NC(=O)c4ccc(OC)nc4)c3)nn2)[C@]2(C)[C@H](C)CC[C@]3(CCC(=O)[C@H]32)[C@@H](C)[C@@H]1O | 0.12 (≈ 0.183 µM) | half-life at 1 µM [1]: 34.2 s; half-life at 1 µM [2]: 144 s; CLint scaled at 1 µM [3]: 574 L/h/kg; CLint scaled at 1 µM [4]: 154 L/h/kg |
| C=C[C@]1(C)C[C@@H](OC(=O)Cn2cc(-c3ccc(C(=O)c4ccc5c(N)ncnn45)cn3)nn2)[C@]2(C)[C@H](C)CC[C@]3(CCC(=O)[C@H]32)[C@@H](C)[C@@H]1O | 0.06 (≈ 0.09 µM) | half-life at 1 µM [1]: 32.4 s; half-life at 1 µM [2]: 102 s; CLint scaled at 1 µM [3]: > 600 L/h/kg; CLint scaled at 1 µM [4]: 221 L/h/kg |
| C=C[C@]1(C)C[C@@H](OC(=O)Cn2cc(-c3ccc(Cn4cc(C)c(=O)[nH]c4=O)nc3)nn2)[C@]2(C)[C@H](C)CC[C@]3(CCC(=O)[C@H]32)[C@@H](C)[C@@H]1O | 0.12 (≈ 0.186 µM) |  |
| C=C[C@]1(C)C[C@@H](OC(=O)Cn2cc(-c3cccc(NC(=O)c4ccc(OC)nc4)c3)nn2)[C@]2(C)[C@H](C)CC[C@]3(CCC(=O)[C@H]32)[C@@H](C)[C@@H]1O | 0.12 (≈ 0.183 µM) |  |
| C=C[C@]1(C)C[C@@H](OC(=O)Cn2cc(-c3ccc(Cn4cnc5c(=O)[nH]c(N)nc54)cc3)nn2)[C@]2(C)[C@H](C)CC[C@]3(CCC(=O)[C@H]32)[C@@H](C)[C@@H]1O | 2 (≈ 2.99 µM) |  |
| C=C[C@]1(C)C[C@@H](OC(=O)Cn2cc(-c3cncc(C(=O)Nc4ccccn4)c3)nn2)[C@]2(C)[C@H](C)CC[C@]3(CCC(=O)[C@H]32)[C@@H](C)[C@@H]1O | 0.06 (≈ 0.0957 µM) |  |
| C=C[C@]1(C)C[C@@H](OC(=O)Cn2cc(-c3ccc(Cn4cnc5c(=O)[nH]cnc54)cc3)nn2)[C@]2(C)[C@H](C)CC[C@]3(CCC(=O)[C@H]32)[C@@H](C)[C@@H]1O | 0.06 (≈ 0.0918 µM) |  |
| C=C[C@]1(C)C[C@@H](OC(=O)Cn2cc(-c3ccc(Cn4cnc(CO)c4)nc3)nn2)[C@]2(C)[C@H](C)CC[C@]3(CCC(=O)[C@H]32)[C@@H](C)[C@@H]1O | 2 (≈ 3.24 µM) |  |
| C=C[C@]1(C)C[C@@H](OC(=O)Cn2cc(-c3cncc(NC(=O)c4c[nH]c(=O)cn4)c3)nn2)[C@]2(C)[C@H](C)CC[C@]3(CCC(=O)[C@H]32)[C@@H](C)[C@@H]1O | 1 (≈ 1.55 µM) |  |
| C=C[C@]1(C)C[C@@H](OC(=O)Cn2cc(-c3ccnc(NC(=O)c4cnc(OC)cn4)c3)nn2)[C@]2(C)[C@H](C)CC[C@]3(CCC(=O)[C@H]32)[C@@H](C)[C@@H]1O | 0.25 (≈ 0.38 µM) |  |

| Structure (SMILES) | MIC (Staphylococcus aureus) [µg/mL] | also measured |
| --- | --- | --- |
| C=C[C@]1(C)C[C@@H](OC(=O)Cn2cc(-c3ccc(NC(=O)c4ccccc4)cc3)nn2)[C@]2(C)[C@H](C)CC[C@]3(CCC(=O)[C@H]32)[C@@H](C)[C@@H]1O | 4 (≈ 6.4 µM) |  |
| C=C[C@]1(C)C[C@@H](OC(=O)Cn2cc(-c3ccc(Cn4cnc5c(=O)[nH]c(N)nc54)nc3)nn2)[C@]2(C)[C@H](C)CC[C@]3(CCC(=O)[C@H]32)[C@@H](C)[C@@H]1O | 8 (≈ 11.9 µM) |  |
| O=C(O)Cc1ccccc1Nc1c(Cl)cccc1Cl [DICLOFENAC] |  | half-life at 1 µM [1]: 1210 s; CLint scaled at 1 µM [3]: 16.3 L/h/kg |
| C=C[C@]1(C)C[C@@H](OC(=O)Cn2cc(-c3ccc(Cn4ccnc4)cc3)nn2)[C@]2(C)[C@H](C)CC[C@]3(CCC(=O)[C@H]32)[C@@H](C)[C@@H]1O | 0.25 (≈ 0.427 µM) |  |
| C=C[C@]1(C)C[C@@H](OC(=O)Cn2cc(-c3ccc(Cn4ccc5c(N)ncnc54)cc3)nn2)[C@]2(C)[C@H](C)CC[C@]3(CCC(=O)[C@H]32)[C@@H](C)[C@@H]1O | 0.06 (≈ 0.0921 µM) |  |
| C=C[C@]1(C)C[C@@H](OC(=O)Cn2cc(-c3ccc(Cn4ccc(=O)[nH]c4=O)cc3)nn2)[C@]2(C)[C@H](C)CC[C@]3(CCC(=O)[C@H]32)[C@@H](C)[C@@H]1O | 0.12 (≈ 0.191 µM) |  |
| C=C[C@]1(C)C[C@@H](OC(=O)Cn2cc(-c3ccc(Cn4cnc5c(N)ncnc54)c(O)c3)nn2)[C@]2(C)[C@H](C)CC[C@]3(CCC(=O)[C@H]32)[C@@H](C)[C@@H]1O |  | half-life at 1 µM [1]: 33.6 s; CLint scaled at 1 µM [3]: 586 L/h/kg |
| C=C[C@]1(C)C[C@@H](OC(=O)Cn2cc(-c3cccc(C(=O)Nc4ccccc4)c3)nn2)[C@]2(C)[C@H](C)CC[C@]3(CCC(=O)[C@H]32)[C@@H](C)[C@@H]1O | 0.25 (≈ 0.4 µM) |  |
| C=C[C@]1(C)C[C@@H](OC(=O)Cn2cc(-c3cccc(NC(=O)c4ccccc4)c3)nn2)[C@]2(C)[C@H](C)CC[C@]3(CCC(=O)[C@H]32)[C@@H](C)[C@@H]1O | 0.25 (≈ 0.4 µM) |  |
| C=C[C@]1(C)C[C@@H](OC(=O)Cn2cc(-c3ccc(Cn4ccc5c(N)ncnc54)c(O)c3)nn2)[C@]2(C)[C@H](C)CC[C@]3(CCC(=O)[C@H]32)[C@@H](C)[C@@H]1O | 0.06 (≈ 0.0898 µM) |  |
| C=C[C@]1(C)C[C@@H](OC(=O)Cn2cc(-c3cncc(C(=O)Nc4ccc(OC)cc4)c3)nn2)[C@]2(C)[C@H](C)CC[C@]3(CCC(=O)[C@H]32)[C@@H](C)[C@@H]1O | 0.12 (≈ 0.183 µM) |  |
| C=C[C@]1(C)C[C@@H](OC(=O)Cn2cc(-c3ccc(Cn4ccnc4N)cc3)nn2)[C@]2(C)[C@H](C)CC[C@]3(CCC(=O)[C@H]32)[C@@H](C)[C@@H]1O | 0.5 (≈ 0.832 µM) |  |
| C=C[C@]1(C)C[C@@H](OC(=O)Cn2cc(-c3ccc(CNc4cc(N)ncn4)nc3)nn2)[C@]2(C)[C@H](C)CC[C@]3(CCC(=O)[C@H]32)[C@@H](C)[C@@H]1O | 0.06 (≈ 0.0954 µM) |  |
| C=C[C@]1(C)C[C@@H](OC(=O)Cn2cc(-c3ccc(C(O)c4ccc5c(N)ncnn45)cc3)nn2)[C@]2(C)[C@H](C)CC[C@]3(CCC(=O)[C@H]32)[C@@H](C)[C@@H]1O (stereo not given in full) | 0.06 (≈ 0.0898 µM) |  |
| C=C[C@]1(C)C[C@@H](OC(=O)Cn2cc(-c3cncc(C(=O)Nc4ccc(N)cc4)c3)nn2)[C@]2(C)[C@H](C)CC[C@]3(CCC(=O)[C@H]32)[C@@H](C)[C@@H]1O | 0.12 (≈ 0.187 µM) |  |
| C=C[C@]1(C)C[C@@H](OC(=O)Cn2cc(-c3cccc(Oc4ncnc5[nH]cnc45)c3)nn2)[C@]2(C)[C@H](C)CC[C@]3(CCC(=O)[C@H]32)[C@@H](C)[C@@H]1O | 0.12 (≈ 0.188 µM) |  |
